Results taken from patent US20230331737A1, “MTORC1 MODULATORS AND USES THEREOF” (Aeovian Pharmaceuticals, Inc., priority 2020, published 2023).

Experiments:
[1] = biological target: FKBP12 ternary complex with FRB (Homo sapiens, UniProt P42345+P62942); test: SPR assay to characterize ternary complex formation with FKBP12 (FRB injected over compound-saturated FKBP12); type: binding; details: FRB dilutions with 100 nM test compound over immobilized FKBP12
Experimental: Biotinylated avi-FKBP12 was immobilized on a streptavidin chip (Cytiva Series S SA) using a Biacore 8K or 8k+ (Cytiva). To achieve an immobilization level of 100 RU, 0.3 μg/ml biotinylated avi-FKBP12 were injected for 80 sec at a flow rate of 10 μl/min. Serial dilution of FRB was prepared (12 concentrations, 3-fold dilutions, 0.00011-20 μM) and supplemented with 100 nM of a test compound. A-B-A injection mode was used to ensure saturation immobilized FKBP12 with respective test compound. 100 nM solution of the respective test compound was injected before FRB injection for 120 sec and during dissociation for 420 sec. The FRB dilutions were then injected 120 seconds contact time with increasing concentrations. Rapamycin was used as reference sample. 50 mM HEPES pH 7.5, 150 mM NaCl, 2 mM MgCl2, 1 mM DTT, 0.05% Tween-20, 1% DMSO was used as running buffer at a flow rate of 30 μl/min. The multi-cycle kinetics data were fit to a 1:1 binding model to measure the association rate ka (1/Ms), the dissociation rate kd (1/s) and the affinity Kd (M). In case of fast association and dissociation, steady state affinity analysis following the law of mass action was used to determine the affinity Kd (M).

[2] = biological target: FKBP12 (Homo sapiens, UniProt P62942); test: SPR assay to determine binding affinity to FKBP12 (direct binding); details: immobilized biotinylated avi-FKBP12, single-cycle kinetics
Experimental: SPR Assay to Determine Binding Affinity to FKBP12.
Biotinylated avi-FKBP12 was immobilized on a streptavidin chip (Cytiva Series S SA) using a Biacore 8K or 8k+ (Cytiva). […] Test compounds described in Table 11 were diluted in DMSO to 100× working concentration. Each test compound was 100-fold diluted in 50 mM HEPES pH 7.5, 150 mM NaCl, 2 mM MgCl2, 1 mM DTT, 0.05% Tween-20 and a serial dilution prepared (9 concentrations, 3-fold dilutions, 0.08-500 nM). […] The compound dilutions were then injected at 100 uL/min for 120 seconds contact time in sequence with increasing concentrations. Dissociation was monitored for 3600 seconds. 50 mM HEPES pH 7.5, 150 mM NaCl, 2 mM MgCl2, 1 mM DTT, 0.05% Tween-20, 1% DMSO was used as running buffer. The single-cycle kinetics data were fit to a 1:1 binding model to measure the association rate ka (1/Ms), the dissociation rate kd (1/s) and the affinity Kd (M).

[3] = biological target: T1, mTORC1 (Homo sapiens, UniProt P42345+P62942); test: mTORC1 inhibition in PC-3 cells, AlphaLISA of p70S6K pT389 levels; type: cell-based; details: mTORC1 as measured by inhibition of p70S6K pT389 levels, read-out: mTROC1 IC50
T1 construct: endogenous in cells; host or cells: PC-3 cells
Experimental: mTORC1 inhibition was determined via analysis of phosphorylation levels of Phospho-p70 S6 kinase (p70S6K pT389) and Phospho-S6 Ribosomal Protein (pRPS6 pS240/pS244) with the corresponding AlphaLISA kits (PerkinElmer Alpha SF Ultra™ Multiplex phospho (Thr389)/total p70 S6K Assay Kit (Eu/Tb) and AlphaLISA SF Ultra™ p-Ribosomal Protein S6 (Ser240/244) Assay Kit).
%−activity=100*((Sample−Low control)/(High control−Low control))

Sequence of FKBP12 (P62942 whole entry, species assumed): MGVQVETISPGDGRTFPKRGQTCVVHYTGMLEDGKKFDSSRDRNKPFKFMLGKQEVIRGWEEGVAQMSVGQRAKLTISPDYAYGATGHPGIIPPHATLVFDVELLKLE

CO[C@@H]1C[C@H](C[C@@H](C)[C@@H]2CC(=O)[C@H](C)/C=C(\C)[C@@H](O)[C@@H](OC)C(=O)[C@H](C)C[C@H](C)/C=C/C=C/C=C(\C)[C@H](OCCc3ccccc3)C[C@@H]3CC[C@@H](C)[C@@](O)(O3)C(=O)C(=O)N3CCCCC3C(=O)O2)CC[C@H]1O (stereo partly drawn) [Compound 121, (1R,9S,12S,15R,16E,18R,19R,21R,23S,24E,26E,28E,30R,32S,35R)-1,18-dihydroxy-12-[(1R)-2-[(I S,3R,4R)-4-hydroxy-3-methoxy-cyclohexyl]-1-methyl-ethyl]-19-methoxy-15,17,21,23,29,35-hexamethyl-30-(2-phenylethoxy)-11,36-dioxa-4-azatricyclo[30.3.1.04,9]hexatriaconta-16,24,26,28-tetraene-2,3,10,14,20-pentone] gave a Kd [1] of less than 500 nM, a Kd [2] greater than 1 nM and an IC50 [3] of 0.8 to 1.5 nM.

CO[C@@H]1C[C@H](C[C@@H](C)[C@@H]2CC(=O)[C@H](C)/C=C(\C)[C@@H](O)[C@@H](OC)C(=O)[C@H](C)C[C@H](C)/C=C/C=C/C=C(\C)[C@H](OCC3COC3)C[C@@H]3CC[C@@H](C)[C@@](O)(O3)C(=O)C(=O)N3CCCC[C@H]3C(=O)O2)CC[C@H]1O [Compound 122, (1R,9S,12S,15R,16E,18R,19R,21R,23S,24E,26E,28E,30R,32S,35R)-1,18-dihydroxy-12-[(2R)-1-[(1S,3R,4R)-4-hydroxy-3-methoxycyclohexyl]propan-2-yl]-19-methoxy-15,17,21,23,29,35-hexamethyl-30-[(oxetan-3-yl)methoxy]-11,36-dioxa-4-azatricyclo[30.3.1.04,9]hexatriaconta-16,24,26,28-tetraene-2,3,10,14,20-pentone] was tested, and the Kd [1] was greater than 1100 nM, the Kd [2] was 0.3 to 1 nM and the IC50 [3] was 0.8 to 1.5 nM.

With CO[C@@H]1C[C@H](C[C@@H](C)[C@@H]2CC(=O)[C@H](C)/C=C(\C)[C@@H](O)[C@@H](OC)C(=O)[C@H](C)C[C@H](C)/C=C/C=C/C=C(\C)[C@H](OC3COC3)C[C@@H]3CC[C@@H](C)[C@@](O)(O3)C(=O)C(=O)N3CCCC[C@H]3C(=O)O2)CC[C@H]1O [Compound 124, (1R,9S,12S,15R,16E,18R,19R,21R,23S,24E,26E,28E,30R,32S,35R)-1,18-dihydroxy-12-[(2R)-1-[(1S,3R,4R)-4-hydroxy-3-methoxycyclohexyl]propan-2-yl]-19-methoxy-15,17,21,23,29,35-hexamethyl-30-(oxetan-3-yloxy)-11,36-dioxa-4-azatricyclo[30.3.1.04,9]hexatriaconta-16,24,26,28-tetraene-2,3,10,14,20-pentone] the Kd [1] was greater than 1100 nM, the Kd [2] was less than 0.3 nM and the IC50 [3] was greater than 1.5 nM.

CO[C@@H]1C[C@H](C[C@@H](C)[C@@H]2CC(=O)[C@H](C)/C=C(\C)[C@@H](O)[C@@H](OC)C(=O)[C@H](C)C[C@H](C)/C=C/C=C/C=C(\C)[C@H](OCCOCCO)C[C@@H]3CC[C@@H](C)[C@@](O)(O3)C(=O)C(=O)N3CCCC[C@H]3C(=O)O2)CC[C@H]1O [Compound 125, (1R,9S,12S,15R,16E,18R,19R,21R,23S,24E,26E,28E,30R,32S,35R)-1,18-dihydroxy-30-[2-(2-hydroxyethoxy)ethoxy]-12-[(1R)-2-[(1S,3R,4R)-4-hydroxy-3-methoxy-cyclohexyl]-1-methyl-ethyl]-19-methoxy-15,17,21,23,29,35-hexamethyl-11,36-dioxa-4-azatricyclo[30.3.1.04,9]hexatriaconta-16,24,26,28-tetraene-2,3,10,14,20-pentone] was tested, and the Kd [1] was greater than 1100 nM, the Kd [2] was less than 0.3 nM and the IC50 [3] was 0.8 to 1.5 nM.

Work on CO[C@@H]1C[C@H](C[C@@H](C)[C@@H]2CC(=O)[C@H](C)/C=C(\C)[C@@H](O)[C@@H](OC)C(=O)[C@H](C)C[C@H](C)/C=C/C=C/C=C(\C)[C@H](OC3CC3)C[C@@H]3CC[C@@H](C)[C@@](O)(O3)C(=O)C(=O)N3CCCC[C@H]3C(=O)O2)CC[C@H]1OCCO [Compound 128, (1R,9S,12S,15R,16E,18R,19R,21R,23S,24E,26E,28E,30R,32S,35R)-30-(cyclopropoxy)-1,18-dihydroxy-12-[(1R)-2-[(1S,3R,4R)-4-(2-hydroxyethoxy)-3-methoxy-cyclohexyl]-1-methyl-ethyl]-19-methoxy-15,17,21,23,29,35-hexamethyl-11,36-dioxa-4-azatricyclo[30.3.1.04,9]hexatriaconta-16,24,26,28-tetraene-2,3,10,14,20-pentone] yielded a Kd [1] of less than 500 nM, a Kd [2] greater than 1 nM and an IC50 [3] of 0.8 to 1.5 nM.

Compound COCCO[C@@H]1C[C@@H]2CC[C@@H](C)[C@@](O)(O2)C(=O)C(=O)N2CCCC[C@H]2C(=O)O[C@H]([C@H](C)C[C@@H]2CC[C@@H](O)[C@H](OC)C2)CC(=O)[C@H](C)/C=C(\C)[C@@H](O)[C@@H](OC)C(=O)[C@H](C)C[C@H](C)/C=C/C=C/C=C/1C [Compound 130, (1R,9S,12S,15R,16E,18R,19R,21R,23S,24E,26E,28E,30R,32S,35R)-1,18-dihydroxy-12-[(1R)-2-[(1S,3R,4R)-4-hydroxy-3-methoxy-cyclohexyl]-1-methyl-ethyl]-19-methoxy-30-(2-methoxyethoxy)-15,17,21,23,29,35-hexamethyl-11,36-dioxa-4-azatricyclo[30.3.1.04,9]hexatriaconta-16,24,26,28-tetraene-2,3,10,14,20-pentone] has a Kd [1] of 500 to 1100 nM, a Kd [2] of 0.3 to 1 nM and an IC50 [3] of 0.8 to 1.5 nM.

For CO[C@@H]1C[C@H](C[C@@H](C)[C@@H]2CC(=O)[C@H](C)/C=C(\C)[C@@H](O)[C@@H](OC)C(=O)[C@H](C)C[C@H](C)/C=C/C=C/C=C(\C)[C@@H](OCCCCO)C[C@@H]3CC[C@@H](C)[C@@](O)(O3)C(=O)C(=O)N3CCCC[C@H]3C(=O)O2)CC[C@H]1OCCCN1CCOCC1 [Compound 426, (1R,9S,12S,15R,16E,18R,19R,21R,23S,24E,26E,28E,30S,32S,35R)-1,18-dihydroxy-30-(4-hydroxybutoxy)-19-methoxy-12-[(1R)-2-[(1S,3R,4R)-3-methoxy-4-(3-morpholinopropoxy)cyclohexyl]-1-methyl-ethyl]-15,17,21,23,29,35-hexamethyl-11,36-dioxa-4-azatricyclo[30.3.1.0^4,9]hexatriaconta-16,24,26,28-tetraene-2,3,10,14,20-pentone], the Kd [1] was 500 to 1100 nM, the Kd [2] was less than 0.3 nM and the IC50 [3] was 0.8 to 1.5 nM.

With COCCO[C@H]1C[C@@H]2CC[C@@H](C)[C@@](O)(O2)C(=O)C(=O)N2CCCC[C@H]2C(=O)O[C@H]([C@H](C)C[C@@H]2CC[C@@H](OCCCO)[C@H](OC)C2)CC(=O)[C@H](C)/C=C(\C)[C@@H](O)[C@@H](OC)C(=O)[C@H](C)C[C@H](C)/C=C/C=C/C=C/1C [Compound 427, (1R,9S,12S,15R,16E,18R,19R,21R,23S,24E,26E,28E,30S,32S,35R)-1,18-dihydroxy-12-[(1R)-2-[(1S,3R,4R)-4-(3-hydroxypropoxy)-3-methoxy-cyclohexyl]-1-methyl-ethyl]-19-methoxy-30-(2-methoxyethoxy)-15,17,21,23,29,35-hexamethyl-11,36-dioxa-4-azatricyclo[30.3.1.04,9]hexatriaconta-16,24,26,28-tetraene-2,3,10,14,20-pentone] the Kd [1] was less than 500 nM, the Kd [2] was 0.3 to 1 nM and the IC50 [3] was less than 0.8 nM.

COCCO[C@H]1C[C@@H]2CC[C@@H](C)[C@@](O)(O2)C(=O)C(=O)N2CCCC[C@H]2C(=O)O[C@H]([C@H](C)C[C@@H]2CC[C@@H](OCCO)[C@H](OC)C2)CC(=O)[C@H](C)/C=C(\C)[C@@H](O)[C@@H](OC)C(=O)[C@H](C)C[C@H](C)/C=C/C=C/C=C/1C [Compound 439, (1R,9S,12S,15R,16E,18R,19R,21R,23S,24E,26E,28E,30S,32S,35R)-1,18-dihydroxy-12-[(1R)-2-[(1S,3R,4R)-4-(2-hydroxyethoxy)-3-methoxy-cyclohexyl]-1-methyl-ethyl]-19-methoxy-30-(2-methoxyethoxy)-15,17,21,23,29,35-hexamethyl-11,36-dioxa-4-azatricyclo[30.3.1.0^4,9]hexatriaconta-16,24,26,28-tetraene-2,3,10,14,20-pentone] gave a Kd [1] of less than 500 nM, a Kd [2] of 0.3 to 1 nM and an IC50 [3] of less than 0.8 nM.
